Measurements published in patent publication US20250304538A1, “PROCESS OF PREPARING REMIBRUTINIB SUBSTANTIALLY FREE OF NITROSAMINE IMPURITY” (NOVARTIS AG, priority 2024, published 2025).
Entries after “also recorded” stand apart in the source; their conditions may differ. One block for each molecule: values may come before it.

Assays:
[1] = Accelerated predictive stability (APS) of LOU064 drug substance, open dish; format: physicochemical; details: all APS open dish conditions
Experimental: In order to assess the stability behavior of the nitrosamine impurity (N-(3-(6-amino-5-(2(methyl)(nitroso)amino)ethoxy)pyrimidin-4-yl)-5-fluoro-2-methylphenyl)-4-cyclopropyl-2-fluorobenzamide) in LOU064 drug substance, an accelerated predictive stability (APS) was performed.
A statistical based approach, Accelerated Predictive Stability (APS), using the humidity modified Arrhenius equation [Waterman and al., International Journal of Pharmaceutics 293 (1-2), 101-125 (2005)] is applied to understand stability behavior and predict the retest period. […] Short studies are conducted on open dish samples of representative batch (es) of drug substance at accelerated conditions using a wide range of temperatures and humidity with the goal of reaching the specification limit for the identified retest period limiting attributes at each condition as detailed below. […] The humidity corrected Arrhenius equation reflects both the influence of the temperature, and the moisture on the kinetics of the degradation product formation. The resulting open-dish data are fitted to a humidity-corrected Arrhenius equation^1 using ASAPprime® (current version 6.0): […]
3 batches of LOU064 drug substance were placed in open dish under the protocol summarized below:
(§1) The pulled samples were analyzed by HPLC-MS as per method described in example 1 and reported below in tables 9 and 10.

[2] = APS of LOU064 drug substance, closed container with or without nitrogen purge; format: physicochemical; details: 60-80 °C, up to 27 days
Experimental: Samples of batches of LOU064 drug substance were prepared in duplicated in closed container, with one sample being purged with nitrogen and the other not.
as §1

[3] = test system: Salmonella typhimurium strains TA98, TA100, TA1535 and TA1537; test: Enhanced Ames Test (EAT), pre-incubation method, Salmonella strains; format: cell-based
Experimental: N-(3-(6-amino-5-(2(methyl)(nitroso)amino)ethoxy)pyrimidin-4-yl)-5-fluoro-2-methylphenyl)-4-cyclopropyl-2-fluorobenzamide was evaluated in the EAT performed under GLP following the EMA and FDA guidance (2023) for the EAT conditions for N-nitrosamines.
In this study N-(3-(6-amino-5-(2(methyl)(nitroso)amino)ethoxy)pyrimidin-4-yl)-5-fluoro-2-methylphenyl)-4-cyclopropyl-2-fluorobenzamide was evaluated for mutations in Salmonella typhimurium strains TA98, TA100, TA1535 and TA1537 and Escherichia coli strain WP2 uvrA pKM101, both in the absence and presence of 30% rat and hamster metabolic activation (β-naphthoflavone/phenobarbital-induced rat and hamster liver post-mitochondrial S-9 fraction). The test used pre-incubation method (30 minutes). N-(3-(6-amino-5-(2(methyl)(nitroso)amino)ethoxy)pyrimidin-4-yl)-5-fluoro-2-methylphenyl)-4-cyclopropyl-2-fluorobenzamide was formulated in dimethyl sulfoxide (DMSO) at concentrations of 5, 16, 50, 160, 500, 1600 and 5000 μg/plate.

[4] = Stability of intermediate F8: nitrosamine content overtime (air exposure, storage); format: physicochemical; details: upon exposure to the air or upon storage
Experimental: • Limit-test by LC-MS (SIM mode), AJS-ES, positive mode, SIM Ion: 483.2 [M+H]+ • Column: YMC-Triart C18, 100×3.0 mm, particle size 1.9 μm, 12 nm • Mobile phase A: Dissolve 0.315 g of Ammonium formate in 1000 mL of water, add 0.5 mL of formic acid • Mobile phase B: Methanol • Sample solvent: Methanol+0.2% (v/v) Formic acid • Sample solution: approx. 100 mg of the sample in 20 mL • Flow: 0.6 mL/min • Injection volume: 3 μL • Autosampler cooled, 8° C. • Column temperature. 80° C.
Same method was used to determine the level of nitrosamine content in intermediate F8, in salts or in solvate of LOU064.
The content of nitrosamine in intermediate F8 was determined using method described in Example 1.

stability behavior of the nitrosamine impurity (in words) [1]: stable
Compound: C=CC(=O)N(C)CCOc1c(N)ncnc1-c1cc(F)cc(NC(=O)c2ccc(C3CC3)cc2F)c1C [LOU064 drug substance, N-(3-(6-Amino-5-(2-(N-methylacrylamido)ethoxy)pyrimidin-4-yl)-5-fluoro-2-methylphenyl)-4-cyclopropyl-2-fluorobenzamide]
nitrosamine, stored closed under nitrogen versus closed without nitrogen (in words) [2]: no difference observed beyond analytical variability

Compound: CCN(CC)N=O [NDEA, N-nitrosodiethylamine, reference compound]
induced mutations ([3]; strain TA100, presence of 30% rat S-9): > 2 fold

content of nitrosamine in intermediate F8 (trend) [4]: increased overtime
Compound: CNCCOc1c(N)ncnc1-c1cc(F)cc(NC(=O)c2ccc(C3CC3)cc2F)c1C [F8]

Compound: Cc1c(NC(=O)c2ccc(C3CC3)cc2F)cc(F)cc1-c1ncnc(N)c1OCCN(C)N=O [N-(3-(6-amino-5-(2(methyl)(nitroso)amino)ethoxy)pyrimidin-4-yl)-5-fluoro-2-methylphenyl)-4-cyclopropyl-2-fluorobenzamide]
mutagenicity ([3]; in the presence of rat S-9): not mutagenic
Enhanced Ames Test (EAT) outcome ([3]; overall conclusion of the EAT): positive; also recorded: mutagenic under sensitive metabolic conditions
increases in revertant numbers ([3]; strain TA100, presence of hamster S-9): 2 fold
increases in revertant numbers ([3]; strain TA1535, presence of hamster S-9): 3 fold
mutagenicity ([3]; without metabolic activation): not mutagenic

Compound: CN(CCc1ccccc1)N=O [MNPA, N-methyl-N-nitroso-(2-phenylethyl)amine, reference compound]
Increases (mutations) ([3]; strain TA98, presence of hamster S-9): up to 1.9
